Common to all, as to test: biochemical
What all share (format): biochemical

In assay [1] the target is T1, 382 unique human kinases (Homo sapiens, UniProt Q13554).
T1 construct: purchased Reaction Biology (HotSpot contract assay)
The following applies: kinase CAMK2b, compound 10 uM; for remaining activity at 10 µM: read-out: % Enzyme Activity (relative to DMSO controls).

In assay [2] the target is T2, 382 unique human kinases (Homo sapiens, UniProt Q9H4A3).
T2 construct: purchased Reaction Biology (HotSpot contract assay)
The conditions noted are these: WNK1, 10 uM; for remaining activity at 10 µM: read-out: % Enzyme Activity (relative to DMSO controls).

The target in assay [3] is T3, 382 unique human kinases (Homo sapiens, UniProt O15264).
T3 construct: purchased Reaction Biology (HotSpot contract assay)
T3 sequence (O15264 1-365): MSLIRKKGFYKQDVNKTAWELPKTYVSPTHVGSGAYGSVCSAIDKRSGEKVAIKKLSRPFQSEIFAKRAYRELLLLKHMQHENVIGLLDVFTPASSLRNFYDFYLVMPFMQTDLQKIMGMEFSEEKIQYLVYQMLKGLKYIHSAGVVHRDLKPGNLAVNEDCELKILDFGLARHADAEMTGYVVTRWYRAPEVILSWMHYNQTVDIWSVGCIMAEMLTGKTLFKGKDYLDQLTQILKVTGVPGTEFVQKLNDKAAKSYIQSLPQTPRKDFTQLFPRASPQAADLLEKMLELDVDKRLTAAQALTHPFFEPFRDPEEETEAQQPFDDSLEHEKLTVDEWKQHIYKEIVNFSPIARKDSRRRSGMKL
The following applies: P38d/MAPK13, 10 uM; for remaining activity at 10 µM: read-out: % Enzyme Activity (relative to DMSO controls).

Assay [4] concerns the target T4, 382 unique human kinases (Homo sapiens, UniProt Q13233).
T4 construct: purchased Reaction Biology (HotSpot contract assay)
The conditions noted are these: kinase MEKK1, compound 10 uM; for remaining activity at 10 µM: read-out: % Enzyme Activity (relative to DMSO controls).

Assay [5] deals with T5, 382 unique human kinases (Homo sapiens, UniProt O96017, I157T).
T5 construct: purchased Reaction Biology (HotSpot contract assay)
The conditions noted are these: CHK2 (I157T), 10 uM; for remaining activity at 10 µM: read-out: % Enzyme Activity (relative to DMSO controls).

Assay [6] has as its target T6, 382 unique human kinases (Homo sapiens, UniProt Q9UM73, L1196M).
T6 construct: purchased Reaction Biology (HotSpot contract assay)
The following applies: ALK (L1196M), 10 uM; for remaining activity at 10 µM: read-out: % Enzyme Activity (relative to DMSO controls).

For assay [7], the target named is T7, 382 unique human kinases (Homo sapiens, UniProt Q13976).
T7 construct: purchased Reaction Biology (HotSpot contract assay)
T7 sequence (Q13976 1-671): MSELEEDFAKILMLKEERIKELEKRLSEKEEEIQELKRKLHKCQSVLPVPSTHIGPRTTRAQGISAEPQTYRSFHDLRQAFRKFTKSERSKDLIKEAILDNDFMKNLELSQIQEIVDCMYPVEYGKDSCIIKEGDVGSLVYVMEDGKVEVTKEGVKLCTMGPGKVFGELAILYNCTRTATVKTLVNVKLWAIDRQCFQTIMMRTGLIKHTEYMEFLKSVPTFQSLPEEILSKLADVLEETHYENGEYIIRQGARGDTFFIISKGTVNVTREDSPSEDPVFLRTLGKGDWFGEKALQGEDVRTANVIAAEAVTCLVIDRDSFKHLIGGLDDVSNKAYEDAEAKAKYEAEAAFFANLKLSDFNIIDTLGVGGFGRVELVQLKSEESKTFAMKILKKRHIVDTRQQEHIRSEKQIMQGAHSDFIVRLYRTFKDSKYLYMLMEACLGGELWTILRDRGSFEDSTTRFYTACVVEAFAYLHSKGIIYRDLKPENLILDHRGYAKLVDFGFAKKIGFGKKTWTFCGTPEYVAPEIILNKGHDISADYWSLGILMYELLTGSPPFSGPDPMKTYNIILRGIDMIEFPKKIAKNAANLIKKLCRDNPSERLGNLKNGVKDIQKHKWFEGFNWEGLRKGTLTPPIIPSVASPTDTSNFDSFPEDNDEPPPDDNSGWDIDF
The following applies: PKG1a, 10 uM; for remaining activity at 10 µM: read-out: % Enzyme Activity (relative to DMSO controls).

Assay [8] deals with T8, 382 unique human kinases (Homo sapiens, UniProt P80192).
T8 construct: purchased Reaction Biology (HotSpot contract assay)
The conditions noted are these: MLK1/MAP3K9, 10 uM; for remaining activity at 10 µM: read-out: % Enzyme Activity (relative to DMSO controls).

Assay [9] addresses T9, 382 unique human kinases (Homo sapiens, UniProt P10721, V559A).
T9 construct: purchased Reaction Biology (HotSpot contract assay)
The conditions noted are these: c-Kit (V559A), [ATP] 100 µM, compound 10 uM; for remaining activity at 10 µM: read-out: % Enzyme Activity (relative to DMSO controls).

In assay [10] the target is T10, 382 unique human kinases (Homo sapiens, UniProt P27448).
T10 construct: purchased Reaction Biology (HotSpot contract assay)
The conditions noted are these: MARK3, 10 uM; for remaining activity at 10 µM: read-out: % Enzyme Activity (relative to DMSO controls).

Data on four compounds can be found in paper PMC8550792, “Evolution of kinase polypharmacology across HSP90 drug discovery” (Cell Chemical Biology, 2021).

T1 sequence (Q13554 whole entry): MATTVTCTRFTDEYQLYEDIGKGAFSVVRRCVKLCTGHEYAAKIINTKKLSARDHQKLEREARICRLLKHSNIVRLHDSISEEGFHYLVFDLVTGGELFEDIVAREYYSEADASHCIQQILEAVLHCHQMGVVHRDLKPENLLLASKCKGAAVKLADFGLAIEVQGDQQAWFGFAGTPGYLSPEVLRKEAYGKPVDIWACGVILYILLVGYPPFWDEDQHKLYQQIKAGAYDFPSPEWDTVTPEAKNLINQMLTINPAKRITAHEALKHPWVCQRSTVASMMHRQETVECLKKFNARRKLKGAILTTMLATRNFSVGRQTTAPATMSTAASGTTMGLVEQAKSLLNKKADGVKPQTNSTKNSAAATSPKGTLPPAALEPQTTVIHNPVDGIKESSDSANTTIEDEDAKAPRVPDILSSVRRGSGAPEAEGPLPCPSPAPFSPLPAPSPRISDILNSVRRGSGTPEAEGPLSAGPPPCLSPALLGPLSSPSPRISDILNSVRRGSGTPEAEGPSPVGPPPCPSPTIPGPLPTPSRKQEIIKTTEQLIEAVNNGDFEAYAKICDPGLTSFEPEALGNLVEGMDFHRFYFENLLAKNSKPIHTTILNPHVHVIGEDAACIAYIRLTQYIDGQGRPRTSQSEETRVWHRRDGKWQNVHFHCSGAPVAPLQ
T4 sequence (Q13233 whole entry): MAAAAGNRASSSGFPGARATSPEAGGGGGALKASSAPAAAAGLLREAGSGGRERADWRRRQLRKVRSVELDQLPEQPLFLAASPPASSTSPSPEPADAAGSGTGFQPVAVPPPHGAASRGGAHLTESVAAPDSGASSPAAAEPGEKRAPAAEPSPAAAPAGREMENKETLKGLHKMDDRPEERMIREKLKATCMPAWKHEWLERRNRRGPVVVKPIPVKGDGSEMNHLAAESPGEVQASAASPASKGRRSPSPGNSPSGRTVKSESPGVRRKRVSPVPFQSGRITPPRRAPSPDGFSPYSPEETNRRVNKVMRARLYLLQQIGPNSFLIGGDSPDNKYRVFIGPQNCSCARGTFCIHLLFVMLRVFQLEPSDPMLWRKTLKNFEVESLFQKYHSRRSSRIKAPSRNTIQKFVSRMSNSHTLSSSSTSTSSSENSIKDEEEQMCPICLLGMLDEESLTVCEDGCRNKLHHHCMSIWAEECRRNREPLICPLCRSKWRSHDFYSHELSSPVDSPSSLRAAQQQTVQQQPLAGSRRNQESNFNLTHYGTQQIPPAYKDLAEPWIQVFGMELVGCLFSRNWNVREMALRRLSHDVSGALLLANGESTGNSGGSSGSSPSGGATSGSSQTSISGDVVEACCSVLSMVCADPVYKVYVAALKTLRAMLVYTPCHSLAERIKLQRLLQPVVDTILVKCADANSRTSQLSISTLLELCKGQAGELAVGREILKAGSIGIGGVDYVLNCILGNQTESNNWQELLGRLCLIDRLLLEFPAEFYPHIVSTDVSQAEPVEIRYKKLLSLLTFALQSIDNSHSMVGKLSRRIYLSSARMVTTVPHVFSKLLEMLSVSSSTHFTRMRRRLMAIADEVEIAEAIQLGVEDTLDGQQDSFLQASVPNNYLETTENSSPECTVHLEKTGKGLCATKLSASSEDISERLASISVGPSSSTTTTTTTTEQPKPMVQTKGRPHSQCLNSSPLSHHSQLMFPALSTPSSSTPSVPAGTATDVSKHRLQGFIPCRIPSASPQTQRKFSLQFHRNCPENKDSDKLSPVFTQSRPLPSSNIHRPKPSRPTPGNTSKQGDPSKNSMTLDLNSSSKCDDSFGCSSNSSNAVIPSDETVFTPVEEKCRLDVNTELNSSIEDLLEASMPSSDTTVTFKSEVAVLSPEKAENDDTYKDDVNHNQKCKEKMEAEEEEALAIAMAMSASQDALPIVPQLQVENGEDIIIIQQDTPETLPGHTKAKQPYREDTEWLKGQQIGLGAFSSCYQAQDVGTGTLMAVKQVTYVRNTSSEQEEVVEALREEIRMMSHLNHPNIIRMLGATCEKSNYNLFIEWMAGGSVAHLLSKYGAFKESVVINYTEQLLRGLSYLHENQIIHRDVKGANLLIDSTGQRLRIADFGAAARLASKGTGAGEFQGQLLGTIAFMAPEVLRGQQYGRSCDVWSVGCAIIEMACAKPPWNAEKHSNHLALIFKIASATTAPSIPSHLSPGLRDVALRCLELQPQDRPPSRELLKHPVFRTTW
T9 sequence (P10721 26-976 V559A): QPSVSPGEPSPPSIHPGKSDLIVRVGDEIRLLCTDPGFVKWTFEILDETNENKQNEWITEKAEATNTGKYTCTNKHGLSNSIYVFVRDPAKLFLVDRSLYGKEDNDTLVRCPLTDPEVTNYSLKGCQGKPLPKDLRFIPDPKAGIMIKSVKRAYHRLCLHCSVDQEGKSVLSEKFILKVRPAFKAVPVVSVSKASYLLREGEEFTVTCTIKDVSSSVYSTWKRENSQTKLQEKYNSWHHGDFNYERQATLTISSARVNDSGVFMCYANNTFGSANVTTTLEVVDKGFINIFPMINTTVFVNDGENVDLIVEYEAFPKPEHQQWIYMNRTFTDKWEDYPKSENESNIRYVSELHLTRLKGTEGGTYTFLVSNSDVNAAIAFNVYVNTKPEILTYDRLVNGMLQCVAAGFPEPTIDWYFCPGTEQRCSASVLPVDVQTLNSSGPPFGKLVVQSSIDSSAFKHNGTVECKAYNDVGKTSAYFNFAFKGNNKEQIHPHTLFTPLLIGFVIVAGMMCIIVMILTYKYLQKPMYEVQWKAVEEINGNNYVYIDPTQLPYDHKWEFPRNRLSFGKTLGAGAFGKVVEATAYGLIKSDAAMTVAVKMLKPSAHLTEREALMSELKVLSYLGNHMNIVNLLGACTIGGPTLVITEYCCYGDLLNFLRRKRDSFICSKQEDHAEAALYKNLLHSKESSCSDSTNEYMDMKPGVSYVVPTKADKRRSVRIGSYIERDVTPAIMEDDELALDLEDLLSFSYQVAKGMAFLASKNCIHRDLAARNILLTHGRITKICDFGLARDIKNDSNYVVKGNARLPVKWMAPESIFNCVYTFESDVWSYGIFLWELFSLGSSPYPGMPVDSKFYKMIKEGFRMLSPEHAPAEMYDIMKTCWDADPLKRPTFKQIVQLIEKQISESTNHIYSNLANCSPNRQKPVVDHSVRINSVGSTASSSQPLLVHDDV
T8 sequence (P80192 whole entry): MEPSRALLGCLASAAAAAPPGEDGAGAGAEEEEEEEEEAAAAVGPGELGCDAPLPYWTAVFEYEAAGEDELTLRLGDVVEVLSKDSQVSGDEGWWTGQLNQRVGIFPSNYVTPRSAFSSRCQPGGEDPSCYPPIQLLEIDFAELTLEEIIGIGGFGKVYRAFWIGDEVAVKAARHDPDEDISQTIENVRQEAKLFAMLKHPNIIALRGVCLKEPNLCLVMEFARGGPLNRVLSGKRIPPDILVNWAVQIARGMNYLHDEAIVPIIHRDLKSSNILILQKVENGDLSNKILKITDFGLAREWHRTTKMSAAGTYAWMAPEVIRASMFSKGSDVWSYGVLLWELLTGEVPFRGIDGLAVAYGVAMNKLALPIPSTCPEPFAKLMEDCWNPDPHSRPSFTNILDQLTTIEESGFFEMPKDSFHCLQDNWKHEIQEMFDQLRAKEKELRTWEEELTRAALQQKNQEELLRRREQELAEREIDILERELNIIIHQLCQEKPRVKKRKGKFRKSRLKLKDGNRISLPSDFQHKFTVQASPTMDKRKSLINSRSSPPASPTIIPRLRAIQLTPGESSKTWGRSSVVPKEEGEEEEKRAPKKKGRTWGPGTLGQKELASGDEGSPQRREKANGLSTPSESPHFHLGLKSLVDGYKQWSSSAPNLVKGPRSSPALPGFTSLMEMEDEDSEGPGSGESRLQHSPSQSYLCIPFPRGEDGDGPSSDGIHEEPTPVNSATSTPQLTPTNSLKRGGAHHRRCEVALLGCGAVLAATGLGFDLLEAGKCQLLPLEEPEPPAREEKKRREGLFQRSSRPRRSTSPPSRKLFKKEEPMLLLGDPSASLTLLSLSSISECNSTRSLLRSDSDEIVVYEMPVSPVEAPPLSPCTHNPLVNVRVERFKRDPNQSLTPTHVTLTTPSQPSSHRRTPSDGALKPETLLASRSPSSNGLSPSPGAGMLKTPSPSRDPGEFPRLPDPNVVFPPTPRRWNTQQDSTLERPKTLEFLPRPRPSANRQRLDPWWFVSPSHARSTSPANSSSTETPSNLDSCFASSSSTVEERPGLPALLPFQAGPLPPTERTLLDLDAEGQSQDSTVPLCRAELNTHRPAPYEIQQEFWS
T5 sequence (O96017 whole entry I157T): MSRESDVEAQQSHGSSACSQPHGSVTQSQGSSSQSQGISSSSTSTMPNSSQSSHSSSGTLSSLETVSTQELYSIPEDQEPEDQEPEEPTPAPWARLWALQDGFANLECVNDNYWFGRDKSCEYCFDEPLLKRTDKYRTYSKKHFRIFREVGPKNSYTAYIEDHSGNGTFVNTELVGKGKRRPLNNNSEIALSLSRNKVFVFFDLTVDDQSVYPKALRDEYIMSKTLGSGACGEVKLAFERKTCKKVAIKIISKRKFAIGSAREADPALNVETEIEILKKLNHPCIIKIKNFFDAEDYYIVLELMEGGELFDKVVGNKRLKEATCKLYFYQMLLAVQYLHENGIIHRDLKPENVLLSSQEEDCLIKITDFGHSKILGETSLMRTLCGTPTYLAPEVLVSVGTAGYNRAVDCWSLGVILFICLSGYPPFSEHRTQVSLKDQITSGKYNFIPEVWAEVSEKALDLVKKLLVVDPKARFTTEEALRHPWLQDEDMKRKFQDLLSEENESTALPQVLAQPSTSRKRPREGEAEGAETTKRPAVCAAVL

Turning to `CC(C)c1cc(-c2n[nH]c(=O)n2-c2ccc3c(ccn3C)c2)c(O)cc1O` [Ganetespib (STA9090)], the remaining activity at 10 µM in assay [1] is 79.1%; in assay [2], 94.2%; in assay [3] it was 83.5%; in [4], 98.3%; in assay [5], 76.6%; in [6], 70.2%.
Take `CC(C)c1cc(-c2n[nH]c(=O)n2-c2ccc3c(ccn3C)c2)c(O)cc1O` [Ganetespib]: the remaining activity at 10 µM was 90.9% in [7], 92.1% in assay [8], 43.9% in assay [9] and 100% in assay [10].
Take `CCNC(=O)c1noc(-c2cc(C(C)C)c(O)cc2O)c1-c1ccc(CN2CCOCC2)cc1` [Luminespib (AUY-922)]: the “% Enzyme Activity (relative to DMSO controls)” value is reported as 99.03% in assay [1]; 68.64% in assay [2]; 86.84% in [3]; 83.59% in assay [4]; 100.31% in assay [5]; 98.66% in assay [6]. The remaining activity at 10 µM in assay [1] turned out to be 99.6%; in assay [2], 70.4%; in [3] it was 86.8%; in assay [4], 85.5%; in [5], 102%; in [6], 100%.
On to `CCNC(=O)c1noc(-c2cc(C(C)C)c(O)cc2O)c1-c1ccc(CN2CCOCC2)cc1` [Luminespib], for which the “% Enzyme Activity (relative to DMSO controls)” value in assay [7] is listed as 92.81%; in [8], 102.58%; in [9], 61.54%; in [10], 108.05%. The remaining activity at 10 µM in [7] was 95.7%; in assay [8] it was 103%; in [9], 61.6%; in [10] it was 111%.
